The text below walks through data of publication PMC6704710, “Preclinical evaluation of 3D185, a novel potent inhibitor of FGFR1/2/3 and CSF-1R, in FGFR-dependent and macrophage-dominant cancer models” (Journal of Experimental & Clinical Cancer Research : CR, 2019).

What all share (test): Eurofins kinase panel
Format in all cases: biochemical
What all share (details): read-out: Inhibition rate (%)

One assay deals with T1, ULK1(h) (Homo sapiens, UniProt O75385).
T1 construct: purchased Eurofins (KinaseProfiler)
T1 sequence (O75385 1-1050): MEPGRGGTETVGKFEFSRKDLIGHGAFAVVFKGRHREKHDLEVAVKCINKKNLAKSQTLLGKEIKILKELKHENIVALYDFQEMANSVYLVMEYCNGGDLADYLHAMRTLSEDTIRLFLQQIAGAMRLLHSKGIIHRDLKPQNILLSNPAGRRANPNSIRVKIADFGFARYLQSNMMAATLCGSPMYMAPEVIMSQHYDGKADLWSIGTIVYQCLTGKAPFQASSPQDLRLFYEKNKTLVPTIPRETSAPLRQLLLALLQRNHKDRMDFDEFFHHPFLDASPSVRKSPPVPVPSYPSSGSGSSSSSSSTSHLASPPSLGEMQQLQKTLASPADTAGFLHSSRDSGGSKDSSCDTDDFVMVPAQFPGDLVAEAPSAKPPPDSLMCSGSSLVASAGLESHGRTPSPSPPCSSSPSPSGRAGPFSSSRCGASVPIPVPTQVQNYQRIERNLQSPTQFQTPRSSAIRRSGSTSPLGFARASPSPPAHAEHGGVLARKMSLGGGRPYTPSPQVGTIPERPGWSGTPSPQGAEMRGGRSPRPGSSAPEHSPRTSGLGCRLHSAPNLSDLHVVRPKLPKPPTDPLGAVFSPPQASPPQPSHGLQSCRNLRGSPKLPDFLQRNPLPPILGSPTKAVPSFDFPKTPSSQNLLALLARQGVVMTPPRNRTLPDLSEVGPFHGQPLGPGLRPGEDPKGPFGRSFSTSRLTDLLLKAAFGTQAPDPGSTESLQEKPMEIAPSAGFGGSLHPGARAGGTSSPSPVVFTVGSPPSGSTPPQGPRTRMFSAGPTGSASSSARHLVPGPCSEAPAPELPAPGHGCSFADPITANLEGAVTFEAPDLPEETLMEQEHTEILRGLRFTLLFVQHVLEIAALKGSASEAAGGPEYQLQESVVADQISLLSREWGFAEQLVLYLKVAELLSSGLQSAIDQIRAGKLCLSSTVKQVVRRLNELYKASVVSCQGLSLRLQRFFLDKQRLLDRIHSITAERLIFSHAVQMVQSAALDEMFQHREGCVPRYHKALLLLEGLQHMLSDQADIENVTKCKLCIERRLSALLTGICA

Another assay addresses T2, Rse(h) (Homo sapiens, UniProt Q06418).
T2 construct: purchased Eurofins (KinaseProfiler)
T2 sequence (Q06418 41-890): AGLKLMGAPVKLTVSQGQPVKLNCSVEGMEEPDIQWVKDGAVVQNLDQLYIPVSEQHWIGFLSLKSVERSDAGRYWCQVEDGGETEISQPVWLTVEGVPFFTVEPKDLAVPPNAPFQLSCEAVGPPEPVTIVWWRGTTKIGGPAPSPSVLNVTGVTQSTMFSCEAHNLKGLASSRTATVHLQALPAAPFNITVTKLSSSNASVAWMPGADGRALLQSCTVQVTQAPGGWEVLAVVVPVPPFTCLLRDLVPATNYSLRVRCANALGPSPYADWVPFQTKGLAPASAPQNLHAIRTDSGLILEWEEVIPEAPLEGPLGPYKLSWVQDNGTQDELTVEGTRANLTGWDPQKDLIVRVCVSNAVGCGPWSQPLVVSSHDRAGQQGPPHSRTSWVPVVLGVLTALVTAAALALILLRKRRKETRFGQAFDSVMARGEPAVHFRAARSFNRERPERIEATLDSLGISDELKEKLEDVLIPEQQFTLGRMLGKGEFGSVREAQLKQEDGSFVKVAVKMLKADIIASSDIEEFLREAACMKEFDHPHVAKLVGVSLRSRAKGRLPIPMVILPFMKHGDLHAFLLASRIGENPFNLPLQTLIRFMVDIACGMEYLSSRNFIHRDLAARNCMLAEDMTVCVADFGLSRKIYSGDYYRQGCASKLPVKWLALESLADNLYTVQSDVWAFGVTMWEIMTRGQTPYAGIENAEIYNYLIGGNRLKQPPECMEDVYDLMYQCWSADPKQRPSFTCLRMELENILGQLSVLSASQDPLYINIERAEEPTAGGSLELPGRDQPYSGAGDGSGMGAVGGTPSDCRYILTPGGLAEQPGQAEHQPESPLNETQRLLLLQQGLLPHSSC

The target of the next assay is T3, ALK4(h) (Homo sapiens, UniProt P36896).
T3 construct: purchased Eurofins (KinaseProfiler)
T3 sequence (P36896 24-505): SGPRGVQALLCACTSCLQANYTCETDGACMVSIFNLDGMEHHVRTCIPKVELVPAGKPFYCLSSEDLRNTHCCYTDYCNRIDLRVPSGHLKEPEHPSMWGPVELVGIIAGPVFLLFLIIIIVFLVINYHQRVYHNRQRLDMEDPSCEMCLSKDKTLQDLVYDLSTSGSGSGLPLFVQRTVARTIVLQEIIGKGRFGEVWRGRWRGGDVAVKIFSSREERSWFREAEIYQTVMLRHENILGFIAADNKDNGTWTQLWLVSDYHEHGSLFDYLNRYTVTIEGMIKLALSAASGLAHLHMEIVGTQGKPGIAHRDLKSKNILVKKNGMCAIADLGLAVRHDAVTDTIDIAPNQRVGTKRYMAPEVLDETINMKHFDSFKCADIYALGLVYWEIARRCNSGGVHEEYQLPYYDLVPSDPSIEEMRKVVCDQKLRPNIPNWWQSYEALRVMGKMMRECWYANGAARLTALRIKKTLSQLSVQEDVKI

For another assay, the target named is T4, CaMKIIγ(h) (Homo sapiens, UniProt Q13555).
T4 construct: purchased Eurofins (KinaseProfiler)
T4 sequence (Q13555 whole entry): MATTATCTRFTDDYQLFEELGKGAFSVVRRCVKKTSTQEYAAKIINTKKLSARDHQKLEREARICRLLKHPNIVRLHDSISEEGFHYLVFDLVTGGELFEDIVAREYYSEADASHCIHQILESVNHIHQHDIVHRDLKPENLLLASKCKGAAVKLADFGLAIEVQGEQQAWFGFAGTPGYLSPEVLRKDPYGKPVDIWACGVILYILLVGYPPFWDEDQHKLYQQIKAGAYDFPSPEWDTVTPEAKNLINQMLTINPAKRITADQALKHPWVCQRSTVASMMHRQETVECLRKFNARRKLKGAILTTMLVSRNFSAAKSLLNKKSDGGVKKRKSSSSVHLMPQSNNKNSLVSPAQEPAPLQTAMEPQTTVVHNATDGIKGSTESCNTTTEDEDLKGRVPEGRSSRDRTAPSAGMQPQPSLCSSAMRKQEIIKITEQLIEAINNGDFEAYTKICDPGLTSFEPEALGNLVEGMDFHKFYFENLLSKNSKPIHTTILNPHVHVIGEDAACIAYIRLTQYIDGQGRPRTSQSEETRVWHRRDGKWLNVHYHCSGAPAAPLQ

`COc1cc(OC)c(Cl)c(-c2ccc3c(NC(=O)c4ccc(N5CCNC(C)(C)C5)cc4)n[nH]c3n2)c1Cl` [3D185]: the inhibition – broadly, the change of the read-out against control, counted positive when it falls – at 0.01 µM is -2% on ULK1(h) (10 nM), 5% at Rse(h) (10 nM), -4% at ALK4(h) (10 nM) and -2% on CaMKIIγ(h) (10 nM). Moreover, the inhibition at 0.1 µM on ULK1(h) (100 nM) was 4%; at Rse(h) (100 nM), -2%; on ALK4(h) (100 nM), -7%; on CaMKIIγ(h) (100 nM) it was -6%. Besides, the inhibition at 1 µM was 5% at ULK1(h) (1000 nM), 16% on Rse(h) (1000 nM), 5% on ALK4(h) (1000 nM) and -9% at CaMKIIγ(h) (1000 nM).
